Values quoted from earlier work, collected in patent publication US5478810A, “Peptide amides, processes for the preparation thereof and agents containing these as fibrin/thrombin clotting inhibitors” (Behringwerke Aktiengesellschaft, priority 1990, dated 1995).
No end group written: not given here. *: point of attachment. 4‑hydroxypiperidide = C-terminal 4-hydroxypiperidide, OC1CCN(*)CC1; 3‑methylpiperidide = C-terminal 3-methylpiperidide

Test system: plasma clotting
Conditions: relative to GPRP = 1

| Substance | relative activity (amount of plasma which is inhibited with a defined amount of inhibitor) |
| --- | --- |
| GPRP 3-methylpiperidide (GPRP-{3‑methylpiperidide}) [known peptide derivative presented at the XIth American Symposium on Peptides] | 1.29 |
| GPRP 4-hydroxypiperidide (GPRP-{4‑hydroxypiperidide}) [known peptide derivative presented at the XIth American Symposium on Peptides] | 1.2 |
| GPRP-NH2 | 3.52 |
